Experimental data reported in patent publication US4005073A, “6-Acyl derivatives of aminopenicillanic acid” (priority 1974, dated 1977).
Read-outs that look alike come from different tables or passages of the source.

What was measured:
Pseudomonas Aeriginmos = test: CD50 in the mouse, Pseudomonas Aeriginmos; assay type: in vivo
Excerpt: (§1) |CD50 (mg/kg) in the mouse

Escherichia coli = test: CD50 in the mouse, Escherichia coli; assay type: in vivo
Excerpt: as §1

Proteus Vulganis = test: CD50 in the mouse, Proteus Vulganis; assay type: in vivo
Excerpt: as §1

[1] = system: S. aureous (penicillin resistant); test: CD50 in the mouse, S. aureous (penicillin resistant); assay type: in vivo
Excerpt: as §1

Acute Toxicity = conditions: mouse, in vivo
Excerpt: as §1

[2] = Pseudomonas, po, read-out: CD50

Row | SMILES | ED50 (Pseudomonas Aeriginmos; Pseudomonas, sc, read-out: CD50) [mg/kg] | ED50 (Escherichia coli; sc, S.C.) [mg/kg] | ED50 (Proteus Vulganis; sc, S.C.) [mg/kg] | ED50 ([1]; sc, S.C.) [mg/kg] | LD50 (Acute Toxicity; iv) [mg/kg] | ED50 (Pseudomonas Aeriginmos; [2]) [mg/kg] | ED50 (Pseudomonas Aeriginmos; sc, Pseudomonas Aeriginmos, mouse, S.C., read-out: CD50 (the source's name)) [mg/kg] | ED50 (Escherichia coli; po, P.O.) [mg/kg] | ED50 ([1]; po, P.O.) [mg/kg] | LD50 (Acute Toxicity) [mg/kg] | ED50 (Proteus Vulganis; po, P.O.) [mg/kg] | LD50 (Acute Toxicity; po) [mg/kg]
1 | CC(C)CC(C(=O)O)C(=O)N[C@@H]1C(=O)N2[C@@H]1SC(C)(C)[C@@H]2C(=O)O (some centres unmarked) [(1-Carboxy-3-methyl-butyl)-penicillin di-sodium] | 124 | 2.4 | 6.2 | 34 | 2000 to 4000 | – | – | – | – | – | – | –
2 | CCOC(=O)C(CC(C)C)C(=O)N[C@@H]1C(=O)N2[C@@H]1SC(C)(C)[C@@H]2C(=O)O (some centres unmarked) [(1-[ethoxycarbonyl-3-methylbutyl)]-penicillin sodium] | – | 2.1 | – | 22 | 2000 to 4000 | ~100 | ~80 | 14 | ~100 | 5000 | – | –
3 | CC(C)CC(C(=O)N[C@@H]1C(=O)N2[C@@H]1SC(C)(C)[C@@H]2C(=O)O)C(=O)OCc1ccccc1 (some centres unmarked) [(1-benzyloxycarbonyl-3-methylbutyl)-penicillin sodium] | – | – | – | – | – | 142 | – | 9 | – | – | 8.9 | 2500 to 5000
